PubChem BioAssay AID1963875 (Molecular Pharmacology Branch, DTP, NCI, 2024)

Test system: KRAS-mutant PDC complex spheroid viability
Experiment: Anticancer human tumor 186277-243-T-J2-PDC patient-derived colon adenocarcinoma cell line growth inhibition [KRAS2]
Conditions: for IC50: curve of first compound; for viability, T/C: stronger effect = lower value
From the text: Multicellular complex tumor spheroid response to RAS pathway inhibitors in combination with a targeted agents in patient-derived cell lines with oncogenic KRAS variants from multiple cancer types
A high-throughput screen of multi-cell type tumor spheroids was designed to identify active combinations of targeted small molecules and KRAS pathway inhibitors. Complex spheroids include a stromal component modeled by human endothelial cells (HUVEC) and fibroblasts modeled by human mesenchymal stem cells (MSCs). The concentration ranges selected for each drug and investigational agent were based upon clinically achievable concentrations if the clinical Cmax of the agent was known.
Compounds. The drugs and investigational agents: BI-3406 (NSC825286), BAY-293 (NSC824723), batoprotafib (TNO155; NSC825523), sotorasib (AMG 510; NSC818433), MRTX1257 (NSC819558), elimusertib (BAY 1895344; NSC800525), molibresib (GSK525762; NSC774829), temuterkib (LY3214996; NSC803410), venetoclax (NSC766270), alisertib (NSC759677), olaparib (NSC753686), talazoparib (NSC767125), erdafitinib (NSC781556), ipatasertib (NSC767898), cabozantinib (NSC761068), nintedanib (NSC756659), abemaciclib (NSC768073), docetaxel (NSC628503), trametinib (NSC758246), and sapanisertib (NSC764658) were obtained from the National Cancer Institute (NCI) Developmental Therapeutics Program Chemical Repository. The FDA-approved anticancer drug set is available from the Developmental Therapeutics Program. […] The stock solutions were prepared in dimethyl sulfoxide (DMSO, Sigma-Aldrich, St. Louis, MO, cat. D2650) at 800-fold the tested concentration and stored at -70 degrees C prior to their use. All drugs and investigational agents were tested over a range starting from a high concentration at or near the clinical Cmax and decreasing in half-log increments. If the clinical Cmax for an agent had not been determined, the highest concentration tested was 10 microM.
Cell Culture. All cells were maintained in an incubator at 37 degrees C and 5% CO2 with 95% humidity. The PDC lines were cultured according to standard operating procedures established by the NCI PDMR (https://pdmr.cancer.gov/sops/default.htm). Briefly, all PDCs were thawed and cultured in Matrigel-coated flasks prepared with a working solution of 1X Ham's F-12 nutrient mix, without supplementation (Invitrogen, Waltham, MA, cat. 11765054), 100 U/mL penicillin-streptomycin (Invitrogen, cat. 15140122), and 2.5% Matrigel (Corning Inc., Corning, NY, cat. 354248) for the first three passages. All PDCs were cultured in complete DMEM/F-12 media containing advanced DMEM/F-12 (Invitrogen, cat. 12634028), 4.9% defined fetal bovine serum, heat inactivated (HyClone Laboratories Inc., Logan, UT, cat. SH30070.03HI), 389 ng/mL hydrocortisone (Sigma-Aldrich, cat. H4001), 9.7 ng/mL human EGF recombinant protein (Invitrogen, cat. PHG0313), 23.4 microg/mL adenine (Sigma-Aldrich, cat. A2786), 97.3 U/mL penicillin-streptomycin (Invitrogen, cat. 15140122), 1.9 mM L-glutamine (Invitrogen, cat. 25030081), and 9.7 microM Y-27632 dihydrochloride (Tocris Bioscience, Bristol, United Kingdom, cat. 1254). The PDCs were cultured in complete DMEM/F12 media without 9.7 microM Y-27632 dihydrochloride for at least two passages prior to the screen. The established cell line HOP-62 was cultured in RPMI 1640 medium, HEPES (Invitrogen, cat. 22400105) with 10% defined fetal bovine serum (HyClone Laboratories Inc., cat. SH30070.03) and 2 mM L-glutamine (Invitrogen, cat. 25030081). The pooled donor HUVEC were cultured in endothelial cell growth medium 2 (PromoCell, Heidelberg, Germany, cat. C-22011) and the hMSC were cultured in mesenchymal stem cell growth medium 2 (PromoCell, cat. C-28009). For all experiments, HUVEC and hMSC were used at passages </=5, while the malignant cell lines were used at passages </=15. […]

[1] = second compound 0.0316 µM, first compound 0.01 µM
[2] = second compound 0.0316 µM, first compound 0.0316 µM
[3] = second compound 0.0316 µM, first compound 0.1 µM
[4] = second compound 0.0316 µM, first compound 0.316 µM
[5] = second compound 0.0316 µM, first compound 1 µM
[6] = second compound 0.0316 µM, first compound 3.16 µM
[7] = second compound 0.1 µM, first compound 0.01 µM
[8] = second compound 0.1 µM, first compound 0.0316 µM
[9] = second compound 0.1 µM, first compound 0.1 µM
[10] = second compound 0.1 µM, first compound 0.316 µM
[11] = second compound 0.1 µM, first compound 1 µM
[12] = second compound 0.1 µM, first compound 3.16 µM
[13] = second compound 0.316 µM, first compound 0.01 µM
[14] = second compound 0.316 µM, first compound 0.0316 µM
[15] = second compound 0.316 µM, first compound 0.1 µM
[16] = second compound 0.316 µM, first compound 0.316 µM
[17] = second compound 0.316 µM, first compound 1 µM
[18] = second compound 0.316 µM, first compound 3.16 µM
[19] = second compound 1 µM, first compound 0.01 µM
[20] = second compound 1 µM, first compound 0.0316 µM
[21] = second compound 1 µM, first compound 0.1 µM
[22] = second compound 1 µM, first compound 0.316 µM
[23] = second compound 1 µM, first compound 1 µM
[24] = second compound 1 µM, first compound 3.16 µM
[25] = second compound 3.16 µM, first compound 0.01 µM
[26] = second compound 3.16 µM, first compound 0.0316 µM
[27] = second compound 3.16 µM, first compound 0.1 µM
[28] = second compound 3.16 µM, first compound 0.316 µM
[29] = second compound 3.16 µM, first compound 1 µM
[30] = second compound 3.16 µM, first compound 3.16 µM
[31] = second compound 0.0316 µM, first compound 10 µM
[32] = second compound 0.1 µM, first compound 10 µM
[33] = second compound 0.316 µM, first compound 10 µM
[34] = second compound 1 µM, first compound 10 µM
[35] = second compound 3.16 µM, first compound 10 µM
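Wherever viability, T/C is given: viability read after seven days of compound exposure; 100% = DMSO vehicle-treated spheroids so lower means less viable.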

Structure (SMILES) | IC50 (second compound 0.0316 µM) [µM] | IC50 (second compound 0.1 µM) [µM] | IC50 (second compound 0.316 µM) [µM] | IC50 (second compound 1 µM) [µM] | IC50 (second compound 3.16 µM) [µM] | viability, T/C [2] [%] | viability, T/C [3] [%] | viability, T/C [4] [%] | viability, T/C [5] [%] | viability, T/C [6] [%] | viability, T/C [8] [%] | viability, T/C [9] [%] | viability, T/C [10] [%] | viability, T/C [11] [%] | viability, T/C [14] [%] | viability, T/C [15] [%] | viability, T/C [20] [%] | viability, T/C [21] [%] | viability, T/C [26] [%] | viability, T/C [27] [%] | further results
CC(=O)OC12COC1CC(O)C1(C)C(=O)C(O)C3=C(C)C(OC(=O)C(O)C(NC(=O)OC(C)(C)C)c4ccccc4)CC(O)(C(OC(=O)c4ccccc4)C21)C3(C)C (stereo not given) + C=CC(=O)N1CCN(c2nc(OCC3CCCN3C)nc3c2CCN(c2cccc4cccc(C)c24)C3)CC1CC#N | < 0.01 | < 0.01 | < 0.01 | < 0.01 | < 0.01 | 3.51 | 2.98 | 2.96 | 3.29 | 3.21 | 3.47 | 3.22 | 2.86 | 3.09 | 3.26 | 3.24 | 4.12 | 3.41 | 3.92 | 3.17 | viability, T/C [1]: 5.4%; viability, T/C [7]: 4.93%; viability, T/C [12]: 3.2%; viability, T/C [13]: 3.71%; viability, T/C [16]: 2.85%; viability, T/C [17]: 2.97%; viability, T/C [18]: 3.26%; viability, T/C [19]: 4.4%; viability, T/C [22]: 3%; viability, T/C [23]: 3.17%; viability, T/C [24]: 2.9%; viability, T/C [25]: 4.54%; viability, T/C [28]: 3.26%; viability, T/C [29]: 3.28%; viability, T/C [30]: 3.25%
CN(C)C/C=C/C(=O)Nc1cc2c(Nc3ccc(F)c(Cl)c3)ncnc2cc1O[C@H]1CCOC1 + C=CC(=O)N1CCN(c2nc(OCC3CCCN3C)nc3c2CCN(c2cccc4cccc(C)c24)C3)CC1CC#N | > 0.1 | > 0.1 | > 0.1 | > 0.1 | < 0.000316 | 118 | 112 | – | – | – | 110 | 105 | – | – | 111 | 105 | 98.7 | 105 | 0.23 | 0.38 | viability, T/C (second compound 0.0316 µM, first compound 0.000316 µM): 98.6%; viability, T/C (second compound 0.0316 µM, first compound 0.001 µM): 106%; viability, T/C (second compound 0.0316 µM, first compound 0.00316 µM): 100%; viability, T/C [1]: 103%; viability, T/C (second compound 0.1 µM, first compound 0.000316 µM): 109%; viability, T/C (second compound 0.1 µM, first compound 0.001 µM): 95.5%; viability, T/C (second compound 0.1 µM, first compound 0.00316 µM): 94%; viability, T/C [7]: 117%; viability, T/C (second compound 0.316 µM, first compound 0.000316 µM): 102%; viability, T/C (second compound 0.316 µM, first compound 0.001 µM): 102%; viability, T/C (second compound 0.316 µM, first compound 0.00316 µM): 103%; viability, T/C [13]: 109%; viability, T/C (second compound 1 µM, first compound 0.000316 µM): 94.6%; viability, T/C (second compound 1 µM, first compound 0.001 µM): 94.5%; viability, T/C (second compound 1 µM, first compound 0.00316 µM): 112%; viability, T/C [19]: 106%; viability, T/C (second compound 3.16 µM, first compound 0.000316 µM): 0.97%; viability, T/C (second compound 3.16 µM, first compound 0.001 µM): 0.41%; viability, T/C (second compound 3.16 µM, first compound 0.00316 µM): 0.31%; viability, T/C [25]: 0.31%
COC(=O)c1ccc2c(C(=Nc3ccc(N(C)C(=O)CN4CCN(C)CC4)cc3)c3ccccc3)c(O)[nH]c2c1 + C=CC(=O)N1CCN(c2nc(OCC3CCCN3C)nc3c2CCN(c2cccc4cccc(C)c24)C3)CC1CC#N | 1.89 | 0.732 | 0.949 | 0.446 | < 0.0316 | 103 | 104 | 113 | 85.3 | 21.7 | 91.5 | 92.3 | 103 | 33 | 97.8 | 109 | 105 | 86.3 | 0.29 | 0.26 | viability, T/C [31]: 13.4%; viability, T/C [12]: 12.6%; viability, T/C [32]: 7.16%; viability, T/C [16]: 102%; viability, T/C [17]: 47.5%; viability, T/C [18]: 7.39%; viability, T/C [33]: 5.61%; viability, T/C [22]: 65.3%; viability, T/C [23]: 20.9%; viability, T/C [24]: 1.39%; viability, T/C [34]: 1.01%; viability, T/C [28]: 0.23%; viability, T/C [29]: 0.11%; viability, T/C [30]: 0.77%; viability, T/C [35]: 0.09%
O=C(c1cc(Cc2n[nH]c(=O)c3ccccc23)ccc1F)N1CCN(C(=O)C2CC2)CC1 + C=CC(=O)N1CCN(c2nc(OCC3CCCN3C)nc3c2CCN(c2cccc4cccc(C)c24)C3)CC1CC#N | 1.17 | 3.53 | 8.7 | 7.63 | < 0.0316 | 105 | 107 | 96.2 | 53.1 | 30.7 | 104 | 119 | 121 | 114 | 113 | 111 | 108 | 107 | 0.23 | 0.3 | viability, T/C [31]: 26.6%; viability, T/C [12]: 51.6%; viability, T/C [32]: 34.3%; viability, T/C [16]: 116%; viability, T/C [17]: 118%; viability, T/C [18]: 72.2%; viability, T/C [33]: 47%; viability, T/C [22]: 107%; viability, T/C [23]: 107%; viability, T/C [24]: 77.3%; viability, T/C [34]: 41.6%; viability, T/C [28]: 0.47%; viability, T/C [29]: 0.26%; viability, T/C [30]: 0.28%; viability, T/C [35]: 0.22%
